# Source: US20240390362A1, “METHODS OF TREATING ERYTHROPOIETIC PROTOPORPHYRIA, X-LINKED PROTOPORPHYRIA, OR CONGENITAL ERYTHROPOIETIC PORPHYRIA WITH A SOLID FORM OF BITOPERTIN” (Disc Medicine, Inc., priority 2021, published 2024)
# Columns and labels:
# Format in all cases: cell-based
# clone 1-9 cells = assay: LC/MS/MS of 5-ALA, PPIX and heme levels in the EPP K562 cellular model
# [1] = test system: human cord blood-CD34+ cells; assay: CD34+ cells transduced with FECH shRNA lentivirus, differentiated to erythroid cells; flow cytometry of PPIX and surface markers; conditions: 100 nM, 9 days differentiation
# Experimental: To investigate the effects of GlyT1 inhibitors in human hematopoietic stem cells with an EPP phenotype, lentiviral vectors expressing shRNA of FECH were constructed (Table 4) and transduced at 25 MOI into human cord blood-CD34+ cells purchased from Stemexpress.
# Transduced CD34+ cells were differentiated in the presence of Bitopertin (100 nM) or DMSO control into erythroid cells for 9 days in StemSpan SFEM II media supplemented with StemSpan Erythroid Expansion Supplement. The erythroid cell antigen profile was analyzed using cytofluorimetric strategy with the following surface markers: CD71 (PE Mouse Anti-Human CD71, BD Biosciences), glycophoryin A (APC Mouse Anti-Human CD235a, BD Biosciences).
# K562 clone-9 cells = assay: Cell viability by Vi-CELL XR Complete System in EPP K562 model; conditions: 96 hours incubation
# Experimental: 900 μL of K562 clone-9 cells at 2×10^5 cells/mL in IMDM media with 10% FBS and 1% PS were plated into a 24-well plate. After 24-hour incubation, 100 μL of compound in DMSO/media was added in different concentration. The final concentration of DMSO was 0.1%. The compound was incubated for 96 hours at 37° C. Cell viability and cell count were measured by Vi-CELL XR Complete System. Finally, the effect of the compound on PPIX level was determined by flow cytometry.
structure (smiles),measurement,setting,value
"C[C@H](Oc1ccc(S(C)(=O)=O)cc1C(=O)N1CCN(c2ncc(C(F)(F)F)cc2F)CC1)C(F)(F)F [Bitopertin, [4-(3-fluoro-5-trifluoromethylpyridin-2-yl)piperazin-1-yl][5-methylsulfonyl-2-[((S)-2,2,2-trifluoro-1-methylethyl)oxy]phenyl]methanone]",effect on Heme formation,clone 1-9 cells,minimal effect
same,"effect on erythroid cell surface markers (CD71, glycophorin A)",[1],no negative effects
same,effect on cell viability,K562 clone-9 cells,no negative effects
